In US5254589A, “Sulfonyl urea and carbamate ACAT inhibitors” (priority 1991, dated 1993):

Legend:
[1] = molecular target: T1, acyl-CoA:cholesterol acyltransferase (ACAT) (Oryctolagus cuniculus, UniProt G1SFD9); experiment: In vitro ACAT inhibition (IAI): formation of radiolabeled cholesterol oleate from radiolabeled oleic acid in rabbit intestinal microsomes; type: biochemical; details: inhibition of acylation of cholesterol by oleic acid
T1 construct: in a tissue preparation containing rabbit intestinal microsomes; from tissue; host or cells: rabbit intestine, microsomes
T1 sequence (G1SFD9 1-524): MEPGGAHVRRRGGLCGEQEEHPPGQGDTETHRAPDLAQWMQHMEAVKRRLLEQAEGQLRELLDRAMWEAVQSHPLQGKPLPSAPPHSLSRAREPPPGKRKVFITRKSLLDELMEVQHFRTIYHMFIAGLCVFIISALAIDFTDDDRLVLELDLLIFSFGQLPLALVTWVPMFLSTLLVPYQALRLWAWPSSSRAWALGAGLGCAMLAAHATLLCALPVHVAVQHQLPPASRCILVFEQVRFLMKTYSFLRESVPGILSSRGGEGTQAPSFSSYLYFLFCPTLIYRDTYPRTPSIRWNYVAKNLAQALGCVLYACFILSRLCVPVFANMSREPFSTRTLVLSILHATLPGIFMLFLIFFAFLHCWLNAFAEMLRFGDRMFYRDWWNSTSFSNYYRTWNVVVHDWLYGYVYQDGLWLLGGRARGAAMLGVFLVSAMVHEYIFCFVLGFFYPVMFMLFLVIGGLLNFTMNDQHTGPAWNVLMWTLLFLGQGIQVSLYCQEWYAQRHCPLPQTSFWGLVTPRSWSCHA
Description: As shown by the data presented below in Table 1, the compounds of the present invention are potent inhibitors of the enzyme acyl-CoA:cholesterolacyltransferase (ACAT), and are thus effective in inhibiting the esterification and transport of cholesterol across the intestinal cell wall. The compounds of the present invention are thus useful in pharmaceutical formulations for the treatment of hypercholesterolemia or atherosclerosis. The ability of representative compounds of the present invention to inhibit ACAT was measured using an in vitro test more fully described in F. J. Field and R. G. Salone, Biochemica et Biophysica 712:557-570 (1982). The test assesses the ability of a test compound to inhibit the acylation of cholesterol by oleic acid by measuring the amount of radiolabeled cholesterol oleate formed from radiolabeled oleic acid in a tissue preparation containing rabbit intestinal microsomes.

[2] = In vivo screen APCC: blood cholesterol in rats fed a high fat, high cholesterol diet with 0.5% cholic acid; design: species or system male Sprague-Dawley rats; details: 16 h, rat, 30 mg/kg unless otherwise noted, dosed at 4 PM, high cholesterol diet overnight, blood sampled at 8 AM, read-out: APCC (% .increment.TC)
Description: In one in vivo screen designated APCC, male Sprague-Dawley rats (200 to 225 g) were randomly divided into treatment groups and dosed at 4 PM with either vehicle (CMC/Tween) or suspensions of compounds in vehicle. The normal chow diet was then replaced with a high fat, high cholesterol diet with 0.5% cholic acid. The rats consumed this diet ad libitum during the night and were sacrificed at 8 AM to obtain blood samples for cholesterol analysis using standard procedures. Statistical differences between mean cholesterol values for the same vehicle were determined using analysis of variance followed by Fisher's least significant test. The compounds were dosed at 30 mg/kg unless otherwise noted.

CCCCCCCCCCCCCC(C)S(=O)(=O)NC(=O)Nc1c(C(C)C)cccc1C(C)C (stereo not shown) [Example 1, N-[2,6-Bis(1-methylethyl)phenyl]-N'-(2-pentadecylsulfonyl)urea]
IC50 [1]: 1020 nM | change in vivo at 30 mg/kg [2]: -76%

CCCCCCCCCCCCCCS(=O)(=O)NC(=O)Nc1c(C(C)C)cccc1C(C)C [Example 2, N-[2,6-Bis(1-methylethyl)phenyl]-N'-(tetradecylsulfonyl)urea]
IC50 [1]: 830 nM | change in vivo at 30 mg/kg [2]: -56%

CCCCCCCCCCCCCCS(=O)(=O)N(C)C(=O)Nc1c(C(C)C)cccc1C(C)C [Example 3, N-[2,6-Bis(1-methylethyl)phenyl]-N'-methyl-N'-(tetradecylsulfonyl)urea]
IC50 [1]: > 5000 nM | change in vivo at 30 mg/kg [2]: -34%

CCCCCCCCCCCCCCS(=O)(=O)N(Cc1ccccc1)C(=O)Nc1c(C(C)C)cccc1C(C)C [Example 4]
IC50 [1]: 510 nM

CCCCCCCCS(=O)(=O)NC(=O)Nc1c(C(C)C)cccc1C(C)C [Example 5, N-[2,6-Bis(1-methylethyl)phenyl]-N'-(octylsulfonyl)urea]
IC50 [1]: > 5000 nM

CCCCCCCCCCCCS(=O)(=O)NC(=O)Nc1c(C(C)C)cccc1C(C)C [Example 6, N-[2,6-Bis(1-methylethyl)phenyl]-N'-(dodecylsulfonyl)urea]
IC50 [1]: 1190 nM | change in vivo at 30 mg/kg [2]: -63%

CCCCCCCCCCCCCCCCS(=O)(=O)NC(=O)Nc1c(C(C)C)cccc1C(C)C [Example 7, N-[2,6-Bis(1-methylethyl)phenyl]-N'-(hexadecylsulfonyl)urea]
IC50 [1]: 1270 nM | change in vivo at 30 mg/kg [2]: -64%

CCCCCCCCCCS(=O)(=O)NC(=O)Nc1c(C(C)C)cccc1C(C)C [Example 8, N-[2,6-Bis(1-methylethyl)phenyl]-N'-(decylsulfonyl)urea]
IC50 [1]: 13000 nM | change in vivo at 30 mg/kg [2]: -31%

CCCCCCCCCCCCCCS(=O)(=O)NC(=O)Nc1ccc(F)cc1F [Example 10, N-(2,4-Difluorophenyl)-N'-(tetradecylsulfonyl)urea]
IC50 [1]: 5000 nM | change in vivo at 30 mg/kg [2]: -14%

CCCCCCCCCCCCS(=O)(=O)N(C)C(=O)Nc1c(C(C)C)cccc1C(C)C [Example 11]
IC50 [1]: 86 nM | change in vivo at 30 mg/kg [2]: -49%

CCCCCCCCCCCCCC(c1ccccc1)S(=O)(=O)NC(=O)Nc1c(C(C)C)cccc1C(C)C (stereo not shown) [Example 14, N-[2,6-Bis(1-methylethyl)phenyl]-N'-(1-phenyl-1-tetradecylsulfonyl)urea]
IC50 [1]: 2000 nM | change in vivo at 30 mg/kg [2]: -72%

CCCCCCCCC(c1ccccc1)S(=O)(=O)NC(=O)Nc1c(C(C)C)cccc1C(C)C (stereo not shown) [Example 15, N-[2,6-Bis(1-methylethyl)phenyl]-N'-(1-phenyl-1-nonylsulfonyl)urea]
IC50 [1]: 9200 nM | change in vivo at 30 mg/kg [2]: -75%
